# Results: patent publication US20170204102A1, “AGRICULTURAL AGENT CONTAINING 2,5-DIKETOPIPERAZINE DERIVATIVE AS ACTIVE INGREDIENT” (NAPRO BIOTEC INC., priority 2010, published 2017)
# Read-outs that look alike come from different tables or passages of the source.
# Experiments:
# [1] = tested on: Pectobacterium carotovorum SCC1; experiment: Inhibition of soft rot lesion in tobacco leaf; type: in vivo
# Colletotrichum acutatum = experiment: Inhibition of anthracnose in red pepper fruit after soil drench; settings: for Appearance of anthracnose: control 50
# [2] = tested on: Pectobacterium carotovorum SCC1; experiment: Inhibition of soft rot lesion in cucumber leaf; type: in vivo
# cucumber leaf = experiment: Promotion of growth of cucumber leaf; settings: for Width of leaf: relative values with respect to the control group (89.9 mm) = 100.0; for response vs control in vivo at 1 ppm / response vs control in vivo at 10 ppm / response vs control in vivo at 100 ppm: Cucumis sativus, read-out: Width of leaf
# Protocol: Plant leaves were tested with test compounds by drenching. […] 3-5 days later, the width of the leaves was measured again to compare the growth of the leaves relative to the control group.
# [3] = tested on: Colletotrichum orbiculare; type: in vivo; settings: cucumber; for Number of anthractic lesions in first leaf: control 12.5; for Number of anthractic lesions in second leaf: control 96.8
# [4] = tested on: Pectobacterium carotovorum SCC1; experiment: Inhibition of naturally occurring soft rot in Chinese cabbage hydrocultured in summer; type: in vivo; settings: 20 ppm; sprayed; examined 1 week later; control 58
# Excerpt: After spraying test compounds to hydrocultured Chinese cabbage, naturally occurring soft rot was examined 1 week later.
# [5] = 100 ppm, Table 5, control 73.75
molecule,measurement,setting,value
"O=C1C2CCCN2C(=O)C2CCCN12 (centres unmarked) [Compound No. 31, octahydropyrrolo[1,2-a:1′,2′-d]pyrazin-5,10-dione]",Area of lesion,"[1]; 1 ppm, Table 4, control 100",47.5%
same,Area of lesion,"[1]; 10 ppm, Table 4, control 100",60%
same,Area of lesion,"[1]; 100 ppm, Table 4, control 100",17.5%
same,Appearance of anthracnose,Colletotrichum acutatum; 1 ppm,25%
same,Appearance of anthracnose,Colletotrichum acutatum; 10 ppm,25%
same,Appearance of anthracnose,Colletotrichum acutatum; 100 ppm,0%
same,Area of lesion,"[2]; 1 ppm, Table 7, control 100",95%
same,Area of lesion,"[2]; 10 ppm, Table 7, control 100",78%
same,Area of lesion,"[2]; 100 ppm, Table 7, control 100",80%
same,Width of leaf,cucumber leaf; 1.0 ppm,104.2
same,Width of leaf,cucumber leaf; 10 ppm,103.2
same,Width of leaf,cucumber leaf; 100 ppm,102.8
O=C1N[C@H](Cc2ccc(O)cc2)C(=O)N2CCC[C@H]12 [Compound No. 64],Area of lesion,"[1]; 1 ppm, Table 5, control 73.75",55%
same,Area of lesion,"[1]; 10 ppm, Table 5, control 73.75",37.5%
same,Area of lesion,[1]; [5],60%
same,Area of lesion,"[2]; 1 ppm, Table 8, control 100",50%
same,Area of lesion,"[2]; 10 ppm, Table 8, control 100",55%
same,Area of lesion,"[2]; 100 ppm, Table 8, control 100",65%
"O=C1NC(CO)C(=O)N2CCCC12 (centres unmarked) [Compound No. 32, 3-hydroxymethylhexahydropyrrolo[1,2-a]pyrazin-1,4-dione]",response vs control in vivo at 1 ppm,cucumber leaf,98.7%
same,response vs control in vivo at 10 ppm,cucumber leaf,124%
same,response vs control in vivo at 100 ppm,cucumber leaf,112%
CCC(C)C1NC(=O)C2CCCN2C1=O (centres unmarked) [Compound No. 60],Area of lesion,"[1]; 1 ppm, Table 5, control 73.75",33.7%
same,Area of lesion,"[1]; 10 ppm, Table 5, control 73.75",25%
same,Area of lesion,[1]; [5],7.5%
same,Area of lesion,"[2]; 1 ppm, Table 8, control 100",50%
same,Area of lesion,"[2]; 10 ppm, Table 8, control 100",60%
same,Area of lesion,"[2]; 100 ppm, Table 8, control 100",27.5%
"O=C1NC(Cc2ccc(O)cc2)C(=O)N2CCCC12 (centres unmarked) [Compound No. 23, 3-(4-hydroxybenzyl)hexahydropyrrolo[1,2-a]pyrazin-1,4-dione]",response vs control in vivo at 1 ppm,cucumber leaf,97.8%
same,response vs control in vivo at 10 ppm,cucumber leaf,114%
same,response vs control in vivo at 100 ppm,cucumber leaf,110%
"CC(C)C1NC(=O)CNC1=O (centres unmarked) [Compound No. 4, 3-isopropyl-2,5-diketopiperazine]",Area of lesion,"[1]; 1 ppm, Table 3, control 87.5",17.5%
same,Area of lesion,"[1]; 10 ppm, Table 3, control 87.5",52.5%
same,Area of lesion,"[1]; 100 ppm, Table 3, control 87.5",52.5%
same,Area of lesion,"[2]; 1 ppm, Table 6, control 100",37.5%
same,Area of lesion,"[2]; 10 ppm, Table 6, control 100",45%
same,Area of lesion,"[2]; 100 ppm, Table 6, control 100",87.5%
"CCCC1NC(=O)C(C)NC1=O (centres unmarked) [Compound No. 9, 3-methyl-6-(2-methylethyl)-2,5-diketopiperazine]",melting point,,220 to 222 °C (dec.)
"CC1NC(=O)C2CCCN2C1=O (centres unmarked) [Compound No. 25, 3-methylhexahydropyrrolo[1,2-a]pyrazin-1,4-dione]",Number of anthractic lesions in first leaf,[3]; 0.1 ppm,3.8
same,Number of anthractic lesions in second leaf,[3]; 0.1 ppm,37.0
same,Number of anthractic lesions in first leaf,[3]; 1 ppm,1.3
same,Number of anthractic lesions in second leaf,[3]; 1 ppm,46.0
same,Number of anthractic lesions in first leaf,[3]; 10 ppm,1.0
same,Number of anthractic lesions in second leaf,[3]; 10 ppm,22.5
same,Number of anthractic lesions in first leaf,[3]; 100 ppm,2.0
same,Number of anthractic lesions in second leaf,[3]; 100 ppm,27.8
same,Area of lesion,"[1]; 1 ppm, Table 4, control 100",15%
same,Area of lesion,"[1]; 10 ppm, Table 4, control 100",12.5%
same,Area of lesion,"[1]; 100 ppm, Table 4, control 100",0%
same,Appearance of anthracnose,Colletotrichum acutatum; 1 ppm,0%
same,Appearance of anthracnose,Colletotrichum acutatum; 10 ppm,25%
same,Appearance of anthracnose,Colletotrichum acutatum; 100 ppm,25%
same,Appearance of soft rot,[4],19%
same,Area of lesion,"[2]; 1 ppm, Table 7, control 100",78%
same,Area of lesion,"[2]; 10 ppm, Table 7, control 100",73%
same,Area of lesion,"[2]; 100 ppm, Table 7, control 100",85%
same,response vs control in vivo at 1 ppm,cucumber leaf,121%
same,response vs control in vivo at 10 ppm,cucumber leaf,119%
same,response vs control in vivo at 100 ppm,cucumber leaf,123%
"CC(C)CC1NC(=O)C(CO)NC1=O (centres unmarked) [Compound No. 1, 3-hydroxymethyl-6-(2-methylpropyl)-2,5-diketopiperazine]",Area of lesion,"[1]; 1 ppm, Table 3, control 87.5",10%
same,Area of lesion,"[1]; 10 ppm, Table 3, control 87.5",32.5%
same,Area of lesion,"[1]; 100 ppm, Table 3, control 87.5",50%
same,Area of lesion,"[2]; 1 ppm, Table 6, control 100",95%
same,Area of lesion,"[2]; 10 ppm, Table 6, control 100",77.5%
same,Area of lesion,"[2]; 100 ppm, Table 6, control 100",50%
CSCC[C@H]1NC(=O)[C@H]2CCCN2C1=O [Compound No. 65],Area of lesion,"[1]; 1 ppm, Table 5, control 73.75",60%
same,Area of lesion,"[1]; 10 ppm, Table 5, control 73.75",57.5%
same,Area of lesion,[1]; [5],52.5%
O=C1N[C@H](Cc2ccccc2)C(=O)N2CCC[C@H]12 [Compound No. 63],Area of lesion,"[1]; 1 ppm, Table 5, control 73.75",15%
same,Area of lesion,"[1]; 10 ppm, Table 5, control 73.75",22.5%
same,Area of lesion,[1]; [5],65%
same,Area of lesion,"[2]; 1 ppm, Table 8, control 100",82.5%
same,Area of lesion,"[2]; 10 ppm, Table 8, control 100",42.5%
same,Area of lesion,"[2]; 100 ppm, Table 8, control 100",50%
"3-(indol-3-ylmethyl)hexahydropyrrolo[1,2-a]pyrazin-1,4-dione [Compound No. 30]",Number of anthractic lesions in first leaf,[3]; 0.1 ppm,2.5
same,Number of anthractic lesions in second leaf,[3]; 0.1 ppm,66.8
same,Number of anthractic lesions in first leaf,[3]; 1 ppm,3.0
same,Number of anthractic lesions in second leaf,[3]; 1 ppm,39.0
same,Number of anthractic lesions in first leaf,[3]; 10 ppm,7.0
same,Number of anthractic lesions in second leaf,[3]; 10 ppm,35.3
same,Number of anthractic lesions in first leaf,[3]; 100 ppm,7.8
same,Number of anthractic lesions in second leaf,[3]; 100 ppm,55.3
same,Area of lesion,"[1]; 1 ppm, Table 4, control 100",2.5%
same,Area of lesion,"[1]; 10 ppm, Table 4, control 100",7.5%
same,Area of lesion,"[1]; 100 ppm, Table 4, control 100",2.5%
same,Appearance of anthracnose,Colletotrichum acutatum; 1 ppm,0%
same,Appearance of anthracnose,Colletotrichum acutatum; 10 ppm,0%
same,Appearance of anthracnose,Colletotrichum acutatum; 100 ppm,0%
same,Appearance of anthracnose / anthractic lesion (in words),"Colletotrichum acutatum; Table 10, FIG. 9",hardly observed
same,Area of lesion,"[2]; 1 ppm, Table 7, control 100",88%
same,Area of lesion,"[2]; 10 ppm, Table 7, control 100",75%
same,Area of lesion,"[2]; 100 ppm, Table 7, control 100",70%
same,Width of leaf,cucumber leaf; 1.0 ppm,101.6
same,Width of leaf,cucumber leaf; 10 ppm,123.5
same,Width of leaf,cucumber leaf; 100 ppm,119.5
"O=C1CNC(=O)C(Cc2c[nH]c3ccccc23)N1 (centres unmarked) [Compound No. 5, 3-(indol-3-ylmethyl)-2,5-diketopiperazine]",melting point,,280 to 284 °C (dec.)
same,Area of lesion,"[1]; 1 ppm, Table 3, control 87.5",2.5%
same,Area of lesion,"[1]; 10 ppm, Table 3, control 87.5",5%
same,Area of lesion,"[1]; 100 ppm, Table 3, control 87.5",40%
